ChEMBL document CHEMBL1201862, “PubChem BioAssay data set” (2004)
Activity calls are given as the source filed them. Rule as the data show it: actives have a measured IC50 and inactives only a lower limit.

Molecular target: Envelope glycoprotein gp160 (Human immunodeficiency virus 1, UniProt Q6QLK5)
Test: inhibitors of HIV fusion peptide binding, primary screen, biochemical, uHTS, fluorescence dequenching (AID 1986)

Chain of Envelope glycoprotein gp160 (Q6QLK5 whole entry, the tested form may be a part): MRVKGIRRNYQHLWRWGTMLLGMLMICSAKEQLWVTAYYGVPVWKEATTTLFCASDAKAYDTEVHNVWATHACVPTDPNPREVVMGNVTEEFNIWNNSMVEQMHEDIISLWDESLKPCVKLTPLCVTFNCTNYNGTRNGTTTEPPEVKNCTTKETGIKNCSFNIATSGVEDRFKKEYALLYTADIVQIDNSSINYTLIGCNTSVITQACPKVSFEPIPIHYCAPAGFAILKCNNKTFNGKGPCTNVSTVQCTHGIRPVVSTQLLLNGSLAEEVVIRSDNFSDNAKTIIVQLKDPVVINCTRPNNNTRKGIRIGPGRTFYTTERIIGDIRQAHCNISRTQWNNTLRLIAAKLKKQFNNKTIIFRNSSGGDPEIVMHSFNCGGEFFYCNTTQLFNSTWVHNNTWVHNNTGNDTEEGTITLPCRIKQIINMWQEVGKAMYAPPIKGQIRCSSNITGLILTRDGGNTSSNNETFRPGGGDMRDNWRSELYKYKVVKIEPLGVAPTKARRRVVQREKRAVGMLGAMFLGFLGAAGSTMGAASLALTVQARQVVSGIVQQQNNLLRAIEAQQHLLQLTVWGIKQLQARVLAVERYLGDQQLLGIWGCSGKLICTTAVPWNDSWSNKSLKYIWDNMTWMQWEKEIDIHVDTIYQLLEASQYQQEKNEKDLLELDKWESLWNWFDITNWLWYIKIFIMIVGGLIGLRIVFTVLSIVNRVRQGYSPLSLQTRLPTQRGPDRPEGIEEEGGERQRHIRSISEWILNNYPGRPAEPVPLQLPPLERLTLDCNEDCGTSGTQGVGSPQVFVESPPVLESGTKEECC

Question: With COc1cc(/C=C2\SC(=O)N(c3ccccc3Cl)C2=O)cc([N+](=O)[O-])c1O as the compound, how does the IC50 read?
Answer: 24.7 µM (active)
